How the values were obtained:
[1] = system: JAK1-dependent STAT6 phosphorylation downstream of IL-13 stimulation in BEAS-2B human bronchial epithelial cells; assay: JAK1 pathway assay in BEAS-2B cells (IL-13-pSTAT6, MSD); assay type: cell-based; details: Homo sapiens, BEAS-2B, BEAS-2B cells, IL-13 stimulation; read-out: IL-13 p-STAT6 BEAS-2B IC50
[2] = target: isolated recombinant JAK2 kinase domain (Homo sapiens (Human), UniProt O60674); assay: JAK2 enzyme assay (Caliper LabChip, Ki); assay type: biochemical
Chain of isolated recombinant JAK2 kinase domain (O60674 849-1124): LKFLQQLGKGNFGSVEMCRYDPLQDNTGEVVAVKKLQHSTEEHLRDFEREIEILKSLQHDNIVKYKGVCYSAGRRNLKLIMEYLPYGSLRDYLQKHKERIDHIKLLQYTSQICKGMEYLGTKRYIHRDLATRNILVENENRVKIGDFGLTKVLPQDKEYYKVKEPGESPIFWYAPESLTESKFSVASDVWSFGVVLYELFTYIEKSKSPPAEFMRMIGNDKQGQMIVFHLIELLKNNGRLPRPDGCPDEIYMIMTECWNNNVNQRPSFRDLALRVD
In short: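 Recombinant human JAK1 or JAK2 kinase domain phosphorylating a 5-carboxyfluorescein-labelled JAK3-derived peptide; 30 min at 22 °C, stopped with EDTA (50 mM final). Phosphorylated product measured as a fraction of total peptide by Caliper LabChip mobility shift.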

[3] = target: isolated recombinant JAK1 kinase domain (Homo sapiens (Human), UniProt P23458); assay: JAK1 enzyme assay (Caliper LabChip, Ki); assay type: biochemical; details: read-out: JAK1 Ki
Chain of isolated recombinant JAK1 kinase domain (P23458 875-1153): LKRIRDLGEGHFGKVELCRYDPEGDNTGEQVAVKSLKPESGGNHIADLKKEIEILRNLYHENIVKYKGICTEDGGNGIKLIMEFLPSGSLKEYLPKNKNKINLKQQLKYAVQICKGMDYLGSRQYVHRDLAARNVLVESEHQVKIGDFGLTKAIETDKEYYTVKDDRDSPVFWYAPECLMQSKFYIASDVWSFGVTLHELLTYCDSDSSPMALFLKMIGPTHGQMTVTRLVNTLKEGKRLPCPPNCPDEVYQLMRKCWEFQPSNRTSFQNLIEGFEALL
In short: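 Recombinant human JAK1 kinase domain phosphorylating an N-terminally 5-carboxyfluorescein-labelled JAK3-derived peptide, 30 min at 22 °C, stopped with EDTA (50 mM final). Phosphorylated fraction of total peptide read by Caliper LabChip mobility shift; Ki from Morrison tight-binding fit corrected for ATP competition (Ki=Ki,app/(1+[ATP]/Km,app)).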

Row | SMILES | IC50 [1] | Ki [2] | Ki [3]
1 | CCc1ccc(-c2ccc(CN3CCC(CC#N)(n4cc(C(N)=O)c(NC(=O)C5CC5)n4)CC3)cc2O)cc1 [Example 189, 1-[4-(cyanomethyl)-1-[[4-(4-ethylphenyl)-3-hydroxy-phenyl]methyl]-4-piperidyl]-3-(cyclopropanecarbonylamino) pyrazole-4-carboxamide] | 38 nM | 1.3 nM | 0.33 nM
2 | N#CCC1(n2cc(C(N)=O)c(NC(=O)C3CC3)n2)CCN(Cc2ccc(-c3ccn(CC(F)(F)F)n3)c(F)c2)CC1 [Example 190, 1-[4-(cyanomethyl)-1-[[3-fluoro-4-[1-(2,2,2-trifluoroethyl)pyrazol-3-yl]phenyl]methyl]-4-piperidyl]-3-(cyclopropanecarbonylamino) pyrazole-4-carboxamide] | 93 nM | 11 nM | 1.1 nM
3 | N#CCC1(n2cc(C(N)=O)c(NC(=O)C3CC3)n2)CCN(Cc2cc(O)c(-c3ccccc3)cc2F)CC1 [Example 191, 1-[4-(cyanomethyl)-1-[(2-fluoro-5-hydroxy-4-phenyl-phenyl)methyl]-4-piperidyl]-3-(cyclopropanecarbonylamino) pyrazole-4-carboxamide] | 82 nM | 0.32 nM | 0.2 nM
4 | N#CCC1(n2cc(C(N)=O)c(NC(=O)C3CC3C#N)n2)CCN(Cc2ccc(-c3ccccc3)cc2)CC1F (stereo not drawn) [Example 192, 3-[(2-cyanocyclopropanecarbonyl)amino]-1-[4-(cyanomethyl)-3-fluoro-1-[(4-phenylphenyl)methyl]-4-piperidyl]pyrazole-4-carboxamide] | 28 nM | 1.2 nM | 0.35 nM
5 | N#CCC1(n2cc(C(N)=O)c(NC(=O)C3CC3)n2)CCN(Cc2ccc(-c3ccccc3)nc2)CC1F (stereo not drawn) [Example 193, 1-[4-(cyanomethyl)-3-fluoro-1-[(6-phenyl-3-pyridyl)methyl]-4-piperidyl]-3-(cyclopropanecarbonylamino) pyrazole-4-carboxamide] | 48 nM | 0.26 nM | 0.33 nM
6 | Cc1c(CN2CCC(CC#N)(n3cc(C(N)=O)c(NC(=O)C4CC4)n3)CC2)ccc(-c2ccccc2)c1O [Example 194, 1-[4-(cyanomethyl)-1-[(3-hydroxy-2-methyl-4-phenyl-phenyl)methyl]-4-piperidyl]-3-(cyclopropanecarbonylamino) pyrazole-4-carboxamide] | 50 nM | 2.2 nM | 0.63 nM
7 | COC(=O)Nc1nn(C2(CC#N)CCN(Cc3ccc(-c4ccccc4)c(O)c3)CC2F)cc1C(N)=O (stereo not drawn) [Example 195, methyl N-[4-carbamoyl-1-[4-(cyanomethyl)-3-fluoro-1-[(3-hydroxy-4-phenyl-phenyl)methyl]-4-piperidyl]pyrazol-3-yl]carbamate] | 15 nM | 0.15 nM | 0.11 nM
8 | COC(=O)Nc1nn(C2(CC#N)CCN(Cc3ccc(-c4ccccc4)nc3)CC2F)cc1C(N)=O (stereo not drawn) [Example 196, methyl N-[4-carbamoyl-1-[4-(cyanomethyl)-3-fluoro-1-[(6-phenyl-3-pyridyl)methyl]-4-piperidyl]pyrazol-3-yl]carbamate] | 30 nM | 0.27 nM | 0.26 nM
9 | COC(=O)Nc1nn(C2(CC#N)CCN(Cc3ccc(-n4nccn4)cc3)CC2)cc1C(N)=O [Example 197, methyl N-[4-carbamoyl-1-[4-(cyanomethyl)-1-[[4-(triazol-2-yl)phenyl]methyl]-4-piperidyl]pyrazol-3-yl]carbamate] | 65 nM | 22 nM | 1.2 nM
10 | COC(=O)Nc1nn(C2(CC#N)CCN(Cc3ccc(-c4ccccc4)nc3F)CC2)cc1C(N)=O [Example 198, methyl N-[4-carbamoyl-1-[4-(cyanomethyl)-1-[(2-fluoro-6-phenyl-3-pyridyl)methyl]-4-piperidyl]pyrazol-3-yl]carbamate] | 74 nM | 3.8 nM | 1.2 nM
11 | N#CCC1(n2cc(C(N)=O)c(NC(=O)C3CC3)n2)CCN(Cc2ccc(-n3nccn3)cc2)CC1F (stereo not drawn) [Example 199, 1-[4-(cyanomethyl)-3-fluoro-1-[[4-(triazol-2-yl)phenyl]methyl]-4-piperidyl]-3-(cyclopropanecarbonylamino) pyrazole-4-carboxamide] | 64 nM | 0.55 nM | 0.52 nM
12 | COC(=O)Nc1nn(C2(CC#N)CCN(Cc3ccc(-n4nccn4)cc3)CC2F)cc1C(N)=O (stereo not drawn) [Example 200, methyl N-[4-carbamoyl-1-[4-(cyanomethyl)-3-fluoro-1-[[4-(triazol-2-yl)phenyl]methyl]-4-piperidyl]pyrazol-3-yl]carbamate] | 39 nM | 0.96 nM | 0.51 nM
13 | N#CCC1(n2cc(C(N)=O)c(NC(=O)C3CC3)n2)CCN(Cc2ccc(-c3ccccc3)nc2F)CC1F (stereo not drawn) [Example 201, 1-[4-(cyanomethyl)-3-fluoro-1-[(2-fluoro-6-phenyl-3-pyridyl)methyl]-4-piperidyl]-3-(cyclopropanecarbonylamino) pyrazole-4-carboxamide] | 23 nM | 0.23 nM | 0.24 nM
14 | N#CCC1(n2cc(C(N)=O)c(NC(=O)C3CC3)n2)CCN(Cc2cnc(-c3ccccc3)cc2F)CC1 [Example 202, 1-[4-(cyanomethyl)-1-[(4-fluoro-6-phenyl-3-pyridyl)methyl]-4-piperidyl]-3-(cyclopropanecarbonylamino) pyrazole-4-carboxamide] | 74 nM | 0.74 nM | 0.55 nM
15 | COC(=O)Nc1nn(C2(CC#N)CCN(Cc3ccc(-c4ccccc4)nc3F)CC2F)cc1C(N)=O (stereo not drawn) [Example 203, methyl N-[4-carbamoyl-1-[4-(cyanomethyl)-3-fluoro-1-[(2-fluoro-6-phenyl-3-pyridyl)methyl]-4-piperidyl]pyrazol-3-yl]carbamate] | 15 nM | 0.22 nM | 0.25 nM
16 | N#CCC1(n2cc(C(N)=O)c(NC(=O)C3CC3)n2)CCN(Cc2ccc(-c3ccccc3)cc2O)CC1 [Example 204, 1-[4-(cyanomethyl)-1-[(2-hydroxy-4-phenyl-phenyl)methyl]-4-piperidyl]-3-(cyclopropanecarbonylamino) pyrazole-4-carboxamide] | 50 nM | 1.8 nM | 1 nM
17 | N#CCC1(n2cc(C(N)=O)c(NC(=O)C3CC3)n2)CCC(N2CC(F)(c3ccccc3)C2)CC1 (stereo not drawn) [Example 205, 1-[1-(cyanomethyl)-4-(3-fluoro-3-phenyl-azetidin-1-yl)cyclohexyl]-3-(cyclopropanecarbonylamino) pyrazole-4-carboxamide] | 82 nM | 5.9 nM | 0.89 nM
18 | COC(=O)Nc1nn(C2(CC#N)CCN(Cc3cc(O)c(-c4ccccc4)cc3F)CC2)cc1C(N)=O [Example 206, methyl N-[4-carbamoyl-1-[4-(cyanomethyl)-1-[(2-fluoro-5-hydroxy-4-phenyl-phenyl)methyl]-4-piperidyl]pyrazol-3-yl]carbamate] | 33 nM | 0.3 nM | 0.18 nM
19 | N#CCC1(n2cc(C(N)=O)c(NC(=O)C3CC3)n2)CCN(Cc2cc(O)c(-c3ccccc3)cc2F)CC1F (stereo not drawn) [Example 207, 1-[4-(cyanomethyl)-3-fluoro-1-[(2-fluoro-5-hydroxy-4-phenyl-phenyl)methyl]-4-piperidyl]-3-(cyclopropanecarbonylamino) pyrazole-4-carboxamide] | 29 nM | 0.13 nM | 0.11 nM
20 | COC(=O)Nc1nn(C2(CC#N)CCN(Cc3cc(O)c(-c4ccccc4)cc3F)CC2F)cc1C(N)=O (stereo not drawn) [Example 208, methyl N-[4-carbamoyl-1-[4-(cyanomethyl)-3-fluoro-1-[(2-fluoro-5-hydroxy-4-phenyl-phenyl)methyl]-4-piperidyl]pyrazol-3-yl]carbamate] | 28 nM | 0.21 nM | 0.17 nM
21 | N#CCC1(n2cc(C(N)=O)c(NC(=O)OC3CC3)n2)CCN(Cc2ccc(-c3ccccc3)c(O)c2)CC1 [Example 209, cyclopropyl N-[4-carbamoyl-1-[4-(cyanomethyl)-1-[(3-hydroxy-4-phenyl-phenyl)methyl]-4-piperidyl]pyrazol-3-yl]carbamate] | 98 nM | 3.8 nM | 0.49 nM
22 | CCc1ccc(-c2ccc(CN3CCC(CC#N)(n4cc(C(N)=O)c(NC(=O)C5CC5)n4)C(F)C3)cc2O)cc1 (stereo not drawn) [Example 212, 1-[4-(cyanomethyl)-1-[[4-(4-ethylphenyl)-3-hydroxy-phenyl]methyl]-3-fluoro-4-piperidyl]-3-(cyclopropanecarbonylamino) pyrazole-4-carboxamide] | 27 nM | 0.3 nM | 0.22 nM
23 | Cc1c(CN2CCC(CC#N)(n3cc(C(N)=O)c(NC(=O)C4CC4)n3)C(F)C2)ccc(-c2ccccc2)c1O (stereo not drawn) [Example 213, 1-[4-(cyanomethyl)-3-fluoro-1-[(3-hydroxy-2-methyl-4-phenyl-phenyl)methyl]-4-piperidyl]-3-(cyclopropanecarbonylamino) pyrazole-4-carboxamide] | 22 nM | 0.28 nM | 0.37 nM
24 | N#CCC1(n2cc(C(N)=O)c(NC(=O)C3CC3)n2)CCN(Cc2ccc(-c3ccoc3)cc2)CC1F (stereo not drawn) [Example 214, 1-[4-(cyanomethyl)-3-fluoro-1-[[4-(3-furyl)phenyl]methyl]-4-piperidyl]-3-(cyclopropanecarbonylamino) pyrazole-4-carboxamide] | 42 nM | 0.62 nM | 0.31 nM

— US11731943B2, “Therapeutic compounds, compositions and methods of use thereof” (priority 2016, dated 2023)
